# Assay results taken from patent US20060014738A1, “Fungicidal combination of active substances” (priority 2002, published 2006).
# System: Pyrenophora teres
# Test: Pyrenophora teres test (barley)/curative
# Assay type: in vivo
# Details: curative, application rate of active compound 100 g/ha, evaluation 7 days after inoculation, 0% = control, 100% = no infection
# Experimental: Pyrenophora teres Test (Barley)/Curative [table] To produce a suitable preparation of active compound, 1 part by weight of active compound or active compound combination is mixed with the stated amount of solvent and emulsifier, and the concentrate is diluted with water to the desired concentration. To test for curative activity, young plants are sprayed with a conidia suspension of Pyrenophora teres. The plants remain in an incubation cabin at 20° C. and 100% relative atmospheric humidity for 48 hours. The plants are then sprayed with the preparation of active compound at the stated application rate. The plants are placed in a greenhouse at a temperature of about 20° C. and a relative atmospheric humidity of about 80%. Evaluation is carried out 7 days after the inoculation. 0% means an efficacy which corresponds to that of the control, whereas an efficacy of 100% means that no infection is observed.
row,Structure (SMILES),Efficacy in %
1,"CON=C(C1=NOCCO1)c1ccccc1Oc1ncnc(Oc2ccccc2Cl)c1F [(III), 3-[1-[2-(4-<2-chlorophenoxy>-5-fluoropyrimid-6-yloxy)phenyl]-1-(methox-imino)methyl]-5,6-dihydro-1,4,2-dioxazine]",67%
2,"OC(Cc1ccccc1Cl)(Cn1nc[nH]c1=S)C1(Cl)CC1 (stereo not drawn) [(II), 2-[2-(1-chlorocyclopropyl)-3-(2-chlorophenyl)-2-hydroxypropyl]-2,4 dihydro[1,2,4]triazole-3-thione]",56%
3,"CON=C(C(=O)OC)c1ccccc1CO/N=C(\C)c1cccc(C(F)(F)F)c1 [(I), 2-[α-{[(α-methyl-3-trifluoromethylbenzyl)imino]oxy}-o-tolyl]glyoxylic acid methyl ester O-methyl oxime]",56%
